Each molecule was assayed against Bifunctional protein GlmU (Escherichia coli (strain K12), UniProt P0ACC7) (assay: Competitive inhibition of Acetyltransferase activity of Escherichia coli BL21(DE3) GlmU in presence of AcCoA).
Sequence of Bifunctional protein GlmU (P0ACC7 whole entry): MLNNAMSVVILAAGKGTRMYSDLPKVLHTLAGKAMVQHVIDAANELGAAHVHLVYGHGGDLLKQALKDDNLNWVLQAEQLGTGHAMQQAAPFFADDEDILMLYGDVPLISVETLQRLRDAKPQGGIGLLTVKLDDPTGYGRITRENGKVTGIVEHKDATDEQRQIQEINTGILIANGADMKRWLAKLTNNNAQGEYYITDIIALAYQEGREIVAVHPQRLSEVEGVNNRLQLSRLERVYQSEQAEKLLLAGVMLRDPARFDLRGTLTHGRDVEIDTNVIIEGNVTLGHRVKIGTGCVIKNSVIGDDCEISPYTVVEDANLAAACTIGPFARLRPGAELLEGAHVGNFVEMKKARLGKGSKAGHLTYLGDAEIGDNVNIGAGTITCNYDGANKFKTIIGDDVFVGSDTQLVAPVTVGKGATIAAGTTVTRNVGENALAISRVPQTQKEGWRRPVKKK
A Ki of 404 nM was found for `O=S(=O)(Nc1ccc(S(=O)(=O)c2ccc(-c3ccc(S(=O)(=O)c4ccc(NS(=O)(=O)c5ccc(Cl)cc5)c(Cl)c4)cc3)cc2)cc1Cl)c1ccc(Cl)cc1` [Mac0008028] in this work. A Ki of 17 nM was found for `Nc1ccc(Nc2ccc(N)cc2S(=O)(=O)O)cc1` [5-amino-2-(4-aminophenylamino)benzenesulfonic acid] in this work. A Ki of 23 nM was found for `O=C(CSc1nnc(SCC(=O)NCCSCc2ccco2)s1)NCCSCc1ccco1` [Mac0029665] in this work.

— BindingDB's records for doi:10.1128/AAC.01572-08 (Mcmaster University, 2009)
